Reference: patent publication US20240368150A1 (Hoffmann-La Roche Inc., priority 2021, published 2024)
Like-named read-outs stand apart in the source and are kept apart here.

Columns and labels:
primary human T-cells [1] = assay: Proliferation assay after 5 days (CellTiter-Glo, CD3 stimulation; PBS counter screen); type: cell-based; settings: CD3 stimulation; for Emax: read-out: Emax proliferation (% activation); for EC50: primary human T-cells, CellTiter-Glo after 5 days, EC50 of fitted sigmoidal curve, read-out: Tcell Proliferation CD3 EC50
In short: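 ATP-based luminescence (CellTiter-Glo 2.0, room temperature) measured proliferation 5 days after compound addition to CD3-stimulated or unstimulated primary human T-cells. Flags marked compounds that lowered viability or activated unstimulated cells.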

primary human T-cells [2] = system: primary human T-cells
MV-3 cells = assay: T-cell - TCB - MV3 killing assay (MCSP-TCB, RFP object count by Incucyte); type: cell-based, human
[3] = Homo sapiens, T-cell, 120 h, 5 days, normalized to reference compound A1 as stimulator control = 100%, DMSO neutral control
[4] = Homo sapiens, MV-3, 120 h, normalized: MCSP-TCB only = neutral control, 20 μM reference compound A1 = 100%; 5 d; read-out: MSCP TCB killing MV-3 cells 5 d Emax
[5] = primary human T-cells + MCSP-TCB, MV-3 RFP cells, 5 d; read-out: MSCP TCB killing MV-3 cells 5 d EC50
[6] = Homo sapiens, MV-3, 120 h, primary human T-cells + MCSP-TCB, MV-3 RFP cells, 5 d; read-out: MSCP TCB killing MV-3 cells 5 d EC50

EC50 (primary human T-cells [2]) [nM] | SMILES | Emax (primary human T-cells [1]; [3]) [%] | EC50 (primary human T-cells [1]; T-cell, 120 h) [nM] | Emax (MV-3 cells; Homo sapiens, MV-3, 120 h, read-out: MSCP TCB killing MV-3 cells 5 d Emax) [%] | EC50 (MV-3 cells; read-out: MSCP TCB killing MV-3 cells 5 d EC50; primary human T-cells + MCSP-TCB, MV-3 RFP cells, 5 d) [nM] | EC50 (primary human T-cells [1]; Homo sapiens, T-cell, 120 h) [nM] | Emax (MV-3 cells; [4]) [%] | EC50 (MV-3 cells; [5]) [nM] | Emax proliferation (% activation) (primary human T-cells [1]; 5 days, normalized to reference compound A1 as stimulator control = 100%, DMSO neutral control) | EC50 (primary human T-cells [1]) [nM] | EC50 (MV-3 cells; [6]) [nM]
57.4 | CC[C@H](NC)C(=O)N[C@H]1CS(=O)(=O)c2cc(F)c(-c3nnc(C(C)(C)C)o3)cc2N(Cc2ccc(Cl)cc2)C1=O [Example 270, (2S)-2-(methylamino)-N-[(3R)-7-(5-tert-butyl-1,3,4-oxadiazol-2-yl)-5-[(4-chlorophenyl)methyl]-8-fluoro-1,1,4-trioxo-2,3-dihydro-1λ^6,5-benzothiazepin-3-yl]butanamide] | – | – | – | – | – | 81 | 20 | 111 | 39.7 | –
1700 | Cc1cc2c(cc1-c1nnc(C(C)(C)C)o1)N(Cc1ccc(Cl)cc1)C(=O)[C@@H](N)CS2(=O)=O [Example 272, (3R)-3-amino-7-(5-tert-butyl-1,3,4-oxadiazol-2-yl)-5-[(4-chlorophenyl)methyl]-8-methyl-1,1-dioxo-2,3-dihydro-1λ^6,5-benzothiazepin-4-one] | 102 | – | – | – | 790 | 100 | 1090 | – | – | –
3710 | CC(C)(C)c1cnn(-c2cc3c(cc2F)S(=O)(=O)C[C@H](N)C(=O)N3Cc2ccc(Cl)cc2)c1 [Example 282, (3R)-3-amino-7-(4-tert-butylpyrazol-1-yl)-5-[(4-chlorophenyl)methyl]-8-fluoro-1,1-dioxo-2,3-dihydro-1λ^6,5-benzothiazepin-4-one] | 96 | – | – | – | 5490 | 74 | 880 | – | – | –
> 20000 | CC(C)(C)n1cnc(-c2cc3c(cc2F)S(=O)(=O)C[C@H](N)C(=O)N3Cc2ccc(Cl)cc2)n1 [Example 286, (3R)-3-amino-7-(1-tert-butyl-1,2,4-triazol-3-yl)-5-[(4-chlorophenyl)methyl]-8-fluoro-1,1-dioxo-2,3-dihydro-1λ^6,5-benzothiazepin-4-one] | 93 | – | – | – | 338 | 100 | 80 | – | – | –
403 | CN1CC(c2nc(-c3cc4c(cc3F)S(=O)(=O)C[C@H](N)C(=O)N4Cc3ccc(Cl)cc3)no2)CC(F)(F)C1 (stereo partly drawn) [Example 323, (3R)-3-amino-5-[(4-chlorophenyl)methyl]-7-[5-(5,5-difluoro-1-methyl-3-piperidyl)-1,2,4-oxadiazol-3-yl]-8-fluoro-1,1-dioxo-2,3-dihydro-1λ^6,5-benzothiazepin-4-one] | 109 | – | – | – | 229 | 100 | 90 | – | – | –
284 | N[C@H]1CS(=O)(=O)c2ccc(-c3nnc(N4CCOC(F)(F)C4)o3)cc2N(Cc2ccc(Cl)cc2)C1=O [Example 391, (3R)-3-amino-5-[(4-chlorophenyl)methyl]-7-[5-(2,2-difluoromorpholin-4-yl)-1,3,4-oxadiazol-2-yl]-1,1-dioxo-2,3-dihydro-1λ^6,5-benzothiazepin-4-one] | 157 | – | – | – | 207 | 100 | – | – | – | 70

The next lines start with the compound.

SMILES | EC50 (primary human T-cells [2]) [nM] | Emax (primary human T-cells [1]; [3]) [%] | EC50 (primary human T-cells [1]; T-cell, 120 h) [nM] | Emax (MV-3 cells; Homo sapiens, MV-3, 120 h, read-out: MSCP TCB killing MV-3 cells 5 d Emax) [%] | EC50 (MV-3 cells; read-out: MSCP TCB killing MV-3 cells 5 d EC50; primary human T-cells + MCSP-TCB, MV-3 RFP cells, 5 d) [nM] | EC50 (primary human T-cells [1]; Homo sapiens, T-cell, 120 h) [nM] | Emax (MV-3 cells; [4]) [%] | EC50 (MV-3 cells; [5]) [nM] | Emax proliferation (% activation) (primary human T-cells [1]; 5 days, normalized to reference compound A1 as stimulator control = 100%, DMSO neutral control) | EC50 (primary human T-cells [1]) [nM] | EC50 (MV-3 cells; [6]) [nM]
CC(C)(C)c1nnc(-c2cc3c(cc2F)S(=O)(=O)C[C@H](N)C(=O)N3Cc2ccc(C#N)cc2)o1 [Example 220, 4-[[(3R)-3-amino-7-(5-tert-butyl-1,3,4-oxadiazol-2-yl)-8-fluoro-1,1,4-trioxo-2,3-dihydro-1λ^6,5-benzothiazepin-5-yl]methyl]benzonitrile] | 238 | 102 | 564 | 100 | 390 | – | – | – | – | – | –
CC(C)(C)c1nnc(-c2cc3c(cc2F)S(=O)(=O)C[C@H](N)C(=O)N3Cc2ccc(OC(F)(F)C(F)F)cc2)o1 [Example 232, (3R)-3-amino-7-(5-tert-butyl-1,3,4-oxadiazol-2-yl)-8-fluoro-1,1-dioxo-5-[[4-(1,1,2,2-tetrafluoroethoxy)phenyl]methyl]-2,3-dihydro-1λ^6,5-benzothiazepin-4-one] | 37 | 127 | – | – | – | 57.6 | 83 | 30 | – | – | –
CC(C)(C)c1nnc(-c2cc3c(cc2F)S(=O)(=O)C[C@H](N)C(=O)N3Cc2ccc(Cl)nc2)o1 [Example 237, (3R)-3-amino-7-(5-tert-butyl-1,3,4-oxadiazol-2-yl)-5-[(6-chloro-3-pyridyl)methyl]-8-fluoro-1,1-dioxo-2,3-dihydro-1λ^6,5-benzothiazepin-4-one] | 526 | 106 | – | – | – | 1300 | 84 | 450 | – | – | –
CC(C)Oc1ccc(CN2C(=O)[C@@H](N)CS(=O)(=O)c3cc(F)c(-c4nnc(C(C)(C)C)o4)cc32)cn1 [Example 249, (3R)-3-amino-7-(5-tert-butyl-1,3,4-oxadiazol-2-yl)-8-fluoro-5-[(6-isopropoxy-3-pyridyl)methyl]-1,1-dioxo-2,3-dihydro-1λ^6,5-benzothiazepin-4-one] | > 10000 | 161 | – | – | – | 1240 | 100 | 210 | – | – | –
CC(C)Oc1ccc(CN2C(=O)[C@@H](N)CS(=O)(=O)c3cc(F)c(-c4nnc(C(C)(C)C)o4)cc32)cc1 [Example 254, (3R)-3-amino-7-(5-tert-butyl-1,3,4-oxadiazol-2-yl)-8-fluoro-5-[(4-isopropoxyphenyl)methyl]-1,1-dioxo-2,3-dihydro-1λ^6,5-benzothiazepin-4-one] | 59.5 | 95 | – | – | – | < 15.1 | 104 | 10 | – | – | –
C[C@H](N)C(=O)N[C@H]1CS(=O)(=O)c2cc(F)c(-c3nnc(C(C)(C)C)o3)cc2N(Cc2ccc(Cl)cc2)C1=O [Example 262] | < 162 | 101 | – | – | – | < 162 | 92 | 30 | – | – | –
CC(C)(C)n1cc(-c2cc3c(cc2F)S(=O)(=O)C[C@H](N)C(=O)N3Cc2ccc(Cl)cc2)cn1 [Example 278, (3R)-3-amino-7-(1-tert-butylpyrazol-4-yl)-5-[(4-chlorophenyl)methyl]-8-fluoro-1,1-dioxo-2,3-dihydro-1λ^6,5-benzothiazepin-4-one] | 177 | 102 | – | – | – | 1080 | 100 | 830 | – | – | –
CC(C)(C)c1nc(-c2cc3c(cc2F)S(=O)(=O)C[C@H](N)C(=O)N3Cc2ccc(Cl)cc2)no1 [Example 289, (3R)-3-amino-7-(5-tert-butyl-1,2,4-oxadiazol-3-yl)-5-[(4-chlorophenyl)methyl]-8-fluoro-1,1-dioxo-2,3-dihydro-1λ^6,5-benzothiazepin-4-one] | 158 | 124 | – | – | – | 187 | 97 | – | – | – | 120
CN(CC(F)(F)F)c1nnc(-c2ccc3c(c2)N(Cc2ccc(Cl)cc2)C(=O)[C@@H](N)CS3(=O)=O)o1 [Example 392, (3R)-3-amino-5-[(4-chlorophenyl)methyl]-7-[5-[methyl(2,2,2-trifluoroethyl)amino]-1,3,4-oxadiazol-2-yl]-1,1-dioxo-2,3-dihydro-1λ^6,5-benzothiazepin-4-one] | 568 | 96 | – | – | – | 948 | 92 | 210 | – | – | –
N[C@H]1CS(=O)(=O)c2ccc(-c3nnc(NC4CC(F)(F)C4)o3)cc2N(Cc2ccc(Cl)cc2)C1=O [Example 397, (3R)-3-amino-5-[(4-chlorophenyl)methyl]-7-[5-[(3,3-difluorocyclobutyl)amino]-1,3,4-oxadiazol-2-yl]-1,1-dioxo-2,3-dihydro-1λ^6,5-benzothiazepin-4-one] | 649 | 82 | – | – | – | 2190 | 92 | 1850 | – | – | –
